# According to patent US20140271734A1, “BILE ACID RECYCLING INHIBITORS FOR TREATMENT OF BARRETT'S ESOPHAGUS AND GASTROESOPHAGEAL REFLUX DISEASE” (LUMENA PHARMACEUTICALS, INC., priority 2013, published 2014):
# Where two headings read alike, the source gives them in different places.
# Test: Toxicokinetics of LUM001 free form, 13-week oral capsule toxicity study in dogs
# Type: in vivo, Beagle dogs
# Design: AUC/Dose / Cmax/Dose: unit not given here
# Conditions: for Cmax / Tmax / AUC(0-t): Beagle, dog, plasma, oral; for AUC(0-t): read-out: AUC(0-24 h), mean
# Experimental: Six- to seven-month old Beagle dogs of body weights of 4.9-9.5 kg (4/sex/group) orally via capsules at 0, 5, 20 or 100 mg/kg for 13 consecutive weeks. Plasma levels of LUM001 (free form) were evaluated on Days 1 and 91. LUM001 was administered by once daily oral gelatin capsules. […] therefore, 105% of a stated dose is given to provide the appropriate amount of compound for dosing. On study Day 1 and Day 91, approximately 2 mL of venous blood was collected in heparinized tubes from the cephalic vein of each animal at 1, 2, 3, 5, 8, and 24 hours post-dose. Blood collection tubes were mixed and placed on ice during the collection period after which they were centrifuged and the plasma was harvested into cryotubes within approximately 60 minutes of blood collection. Plasma samples were stored at approximately −70° C. or lower until analyzed.
# The concentration of LUM001 free form in plasma were determined using an LCMSMS method. The assay sensitivity was 5.00 ng/mL for a […] sample.
# [1] = both sexes, 5 mg/kg, Day 1, 5 mg/kg, Comb
# [2] = both sexes, 5 mg/kg, Day 91, 5 mg/kg, Comb
# [3] = both sexes, 20 mg/kg, Day 1, 20 mg/kg, Comb
# [4] = both sexes, 20 mg/kg, Day 91, 20 mg/kg, Comb
# [5] = both sexes, 100 mg/kg, Day 1, 100 mg/kg, Comb
# [6] = both sexes, 100 mg/kg, Day 91, 100 mg/kg, Comb
# [7] = female, 5 mg/kg, Day 1, 5 mg/kg, F
# [8] = female, 20 mg/kg, Day 1, 20 mg/kg, F
# [9] = female, 20 mg/kg, Day 91, 20 mg/kg, F
# [10] = female, 100 mg/kg, Day 1, 100 mg/kg, F
# [11] = female, 100 mg/kg, Day 91, 100 mg/kg, F
# [12] = male, 5 mg/kg, Day 1, 5 mg/kg, M
# [13] = male, 5 mg/kg, Day 91, 5 mg/kg, M
# [14] = male, 20 mg/kg, Day 1, 20 mg/kg, M
# [15] = male, 20 mg/kg, Day 91, 20 mg/kg, M
# [16] = male, 100 mg/kg, Day 1, 100 mg/kg, M
# [17] = male, 100 mg/kg, Day 91, 100 mg/kg, M
structure (smiles),measurement,setting,value
CCCCC1(CCCC)CS(=O)(=O)c2ccc(N(C)C)cc2[C@@H](c2ccc(OCc3ccc(C[N+]45CCN(CC4)CC5)cc3)cc2)[C@H]1O [LUM001],AUC/Dose,"Day 1, 5 mg/kg, Comb",3.55
same,BA,"Day 1, 5 mg/kg, Comb",0.1%
same,Cmax/Dose,"Day 1, 5 mg/kg, Comb",1.81
same,AUC/Dose,"Day 1, 5 mg/kg, F",4.17
same,BA,"Day 1, 5 mg/kg, F",<0.1%
same,Cmax/Dose,"Day 1, 5 mg/kg, F",1.87
same,AUC/Dose,"Day 1, 5 mg/kg, M",2.92
same,BA,"Day 1, 5 mg/kg, M",<0.1%
same,Cmax/Dose,"Day 1, 5 mg/kg, M",1.76
same,AUC/Dose,"Day 1, 20 mg/kg, Comb",3.63
same,BA,"Day 1, 20 mg/kg, Comb",0.1%
same,Cmax/Dose,"Day 1, 20 mg/kg, Comb",1.25
same,AUC/Dose,"Day 1, 20 mg/kg, F",2.43
same,BA,"Day 1, 20 mg/kg, F",<0.1%
same,Cmax/Dose,"Day 1, 20 mg/kg, F",1.27
same,AUC/Dose,"Day 1, 20 mg/kg, M",4.84
same,BA,"Day 1, 20 mg/kg, M",<0.1%
same,Cmax/Dose,"Day 1, 20 mg/kg, M",1.24
same,AUC/Dose,"Day 1, 100 mg/kg, Comb",2.39
same,BA,"Day 1, 100 mg/kg, Comb",<0.1%
same,Cmax/Dose,"Day 1, 100 mg/kg, Comb",0.907
same,AUC/Dose,"Day 1, 100 mg/kg, F",3.44
same,BA,"Day 1, 100 mg/kg, F",<0.1%
same,Cmax/Dose,"Day 1, 100 mg/kg, F",1.17
same,AUC/Dose,"Day 1, 100 mg/kg, M",1.34
same,BA,"Day 1, 100 mg/kg, M",<0.1%
same,Cmax/Dose,"Day 1, 100 mg/kg, M",0.648
same,AUC/Dose,"Day 91, 5 mg/kg, Comb",0.350
same,BA,"Day 91, 5 mg/kg, Comb",<0.1%
same,Cmax/Dose,"Day 91, 5 mg/kg, Comb",0.350
same,AUC/Dose,"Day 91, 5 mg/kg, F",0.00
same,BA,"Day 91, 5 mg/kg, F",<0.1%
same,Cmax/Dose,"Day 91, 5 mg/kg, F",0.00
same,AUC/Dose,"Day 91, 5 mg/kg, M",0.700
same,BA,"Day 91, 5 mg/kg, M",<0.1%
same,Cmax/Dose,"Day 91, 5 mg/kg, M",0.700
same,AUC/Dose,"Day 91, 20 mg/kg, Comb",2.54
same,BA,"Day 91, 20 mg/kg, Comb",0.1%
same,Cmax/Dose,"Day 91, 20 mg/kg, Comb",1.19
same,AUC/Dose,"Day 91, 20 mg/kg, F",2.70
same,BA,"Day 91, 20 mg/kg, F",<0.1%
same,Cmax/Dose,"Day 91, 20 mg/kg, F",1.25
same,AUC/Dose,"Day 91, 20 mg/kg, M",2.38
same,BA,"Day 91, 20 mg/kg, M",<0.1%
same,Cmax/Dose,"Day 91, 20 mg/kg, M",1.13
same,AUC/Dose,"Day 91, 100 mg/kg, Comb",5.03
same,BA,"Day 91, 100 mg/kg, Comb",0.2%
same,Cmax/Dose,"Day 91, 100 mg/kg, Comb",1.40
same,AUC/Dose,"Day 91, 100 mg/kg, F",6.01
same,BA,"Day 91, 100 mg/kg, F",<0.1%
same,Cmax/Dose,"Day 91, 100 mg/kg, F",1.82
same,AUC/Dose,"Day 91, 100 mg/kg, M",4.05
same,BA,"Day 91, 100 mg/kg, M",<0.1%
same,Cmax/Dose,"Day 91, 100 mg/kg, M",0.974
same,Cmax,[1],9.07 ng/mL
same,Tmax,[1],1.5 h
same,AUC(0-t),[1],17.7 ng·h/mL
same,Cmax,[2],1.75 ng/mL
same,Tmax,[2],0.375 h
same,AUC(0-t),[2],1.75 ng·h/mL
same,Cmax,[3],25.1 ng/mL
same,Tmax,[3],2.13 h
same,AUC(0-t),[3],72.6 ng·h/mL
same,Cmax,[4],23.8 ng/mL
same,Tmax,[4],1.88 h
same,AUC(0-t),[4],50.8 ng·h/mL
same,Cmax,[5],90.7 ng/mL
same,Tmax,[5],1.38 h
same,AUC(0-t),[5],239 ng·h/mL
same,Cmax,[6],140 ng/mL
same,Tmax,[6],2 h
same,AUC(0-t),[6],503 ng·h/mL
same,Cmax,[7],9.34 ng/mL
same,Tmax,[7],1.25 h
same,AUC(0-t),[7],20.9 ng·h/mL
same,Tmax,"female, 5 mg/kg, Day 91, 5 mg/kg, F",0 h
same,Cmax,[8],25.3 ng/mL
same,Tmax,[8],2 h
same,AUC(0-t),[8],48.5 ng·h/mL
same,Cmax,[9],25 ng/mL
same,Tmax,[9],2 h
same,AUC(0-t),[9],53.9 ng·h/mL
same,Cmax,[10],117 ng/mL
same,Tmax,[10],1.5 h
same,AUC(0-t),[10],344 ng·h/mL
same,Cmax,[11],182 ng/mL
same,Tmax,[11],1.75 h
same,AUC(0-t),[11],601 ng·h/mL
same,Cmax,[12],8.79 ng/mL
same,Tmax,[12],1.75 h
same,AUC(0-t),[12],14.6 ng·h/mL
same,Cmax,[13],3.5 ng/mL
same,Tmax,[13],0.75 h
same,AUC(0-t),[13],3.5 ng·h/mL
same,Cmax,[14],24.8 ng/mL
same,Tmax,[14],2.25 h
same,AUC(0-t),[14],96.7 ng·h/mL
same,Cmax,[15],22.6 ng/mL
same,Tmax,[15],1.75 h
same,AUC(0-t),[15],47.6 ng·h/mL
same,Cmax,[16],64.8 ng/mL
same,Tmax,[16],1.25 h
same,AUC(0-t),[16],134 ng·h/mL
same,Cmax,[17],97.4 ng/mL
same,Tmax,[17],2.25 h
same,AUC(0-t),[17],405 ng·h/mL
